Reference: patent publication US20230330254A1 (Regeneron Pharmaceuticals, Inc., priority 2022, published 2023)
*1 amine or outer side, *2 acyl side, *3 side chain or, on linkers, in order; H or OH if unused. Where a SMILES comes first, the peptide text is derived from it. Side-chain parts run from the residue outwards. [ ]: non-standard residue; d: D form. The star is where a group is joined. Bip(2'-Et-4'-O(CH2)4NH2) = CCc1cc(OCCCCN[*:3])ccc1-c1ccc(C[C@H](N[*:1])C(=O)[*:2])cc1; Bip(2'-Et,4'-O(CH2)4N3) = CCc1cc(OCCCCN=[N+]=[N-])ccc1-c1ccc(C[C@H](N)C(=O)O)cc1; Malonyl(2,2-Me2,histaminyl) = CC(C)(C(=O)NCCc1cnc[nH]1)C(=O)*; Nva(5-(3,5-Me2Ph)) = Cc1cc(C)cc(CCC[C@H](N)C(=O)O)c1; Ala(1H-tetrazol-5-yl) = N[C@@H](Cc1nnn[nH]1)C(=O)O; PEG8 = NCCOCCOCCOCCOCCOCCOCCOCCOCCC(=O)O; αMePhe(2-F) = C[C@](N)(Cc1ccccc1F)C(=O)O; DBCO = C1#Cc2ccccc2N(*)Cc2ccccc21; Suc = O=C(CCC(=O)[*:2])[*:1]

Columns and labels:
[1] = Water solubility of linker-payload; type: physicochemical
human GLP1R [2] = target: T1, human GLP1R (Homo sapiens, UniProt P43220); assay: Luciferase reporter assay, HEK293/CRE-Luc/hGLP1R (Example 17); type: cell-based; design: engineered to express full-length human GLP1R, cynomolgus GLP1R; expressed in transfected cells; host or cells: HEK293/CRE-Luc; conditions: HEK293/CRE-Luc/hGLP1R
T1 sequence (P43220 24-463): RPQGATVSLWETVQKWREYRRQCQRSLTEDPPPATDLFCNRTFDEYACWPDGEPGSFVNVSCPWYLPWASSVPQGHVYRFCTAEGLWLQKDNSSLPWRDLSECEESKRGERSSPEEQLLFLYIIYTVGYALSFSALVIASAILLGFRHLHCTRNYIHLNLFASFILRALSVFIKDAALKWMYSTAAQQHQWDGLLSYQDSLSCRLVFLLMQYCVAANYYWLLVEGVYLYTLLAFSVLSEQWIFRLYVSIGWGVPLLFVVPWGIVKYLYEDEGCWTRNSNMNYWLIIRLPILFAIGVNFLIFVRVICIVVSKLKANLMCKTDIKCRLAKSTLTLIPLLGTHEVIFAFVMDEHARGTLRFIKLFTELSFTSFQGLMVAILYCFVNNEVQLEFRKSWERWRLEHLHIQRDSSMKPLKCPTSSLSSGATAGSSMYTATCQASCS
How it was run: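 HEK293 cells carrying a CRE-driven firefly luciferase reporter were exposed to 3-fold serial dilutions of payloads or linker-payloads (12 points, 0.2% DMSO final) for 4–6 h, then luminescence was read. EC50 came from a four-parameter logistic fit; S/N is top RLU over untreated wells, and relative potency and S/N are referenced to M2361.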

HEK293/CRE-Luc cells = assay: Luciferase reporter assay, HEK293/CRE-Luc cells without hGLP1R (Example 11); type: cell-based, human; conditions: Experiment A
How it was run: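 Counter-screen in HEK293 cells carrying CRE-driven firefly luciferase without hGLP1R; 3-fold serial dilutions of payloads or linker-payloads at 0.2% final DMSO, 4–6 h.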

human GLP1R [3] = target: T1, human GLP1R; assay: CRE-luciferase reporter assay, HEK293/Myc-hGLP1R/Cre-Luc (Example 9); type: cell-based; design: engineered to express full-length human GLP1R, cynomolgus GLP1R; expressed in transfected cells; host or cells: HEK293/CRE-Luc; conditions: Table 9; 5.5 h; read-out: HEK293/Myc-hGLP1R/Cre-Luc EC50
Description: To test the activity of GLP1R agonist payloads and GLP1R agonist linker-payloads (LPs) in vitro, a cell-based cAMP responsive luciferase reporter assay was developed.
Cells were incubated overnight at 37° C. in 5% CO2. […] Plates were incubated for 5.5 h at 37° C. in 5% CO2. For end-point measurement, 100 μL/well of One-Glo reagent (Promega, #E6051) was added and plates were kept at room temperature for 5-10 minutes. Luciferase activity was measured on Envision Multilabel Plate Reader (Perkin Elmer) in Luminescent mode. The relative light units (RLU) values were obtained and the results were analyzed using nonlinear regression with GraphPad Prism software (GraphPad).

human GLP1R [4] = target: T1, human GLP1R; assay: Human GLP1R cAMP accumulation assay; type: cell-based; design: HEK293 cells over-expressing full length human GLP-1R were utilized; expressed in transfected cells; host or cells: HEK293 (HEK293/hGLP1R); conditions: HEK293/hGLP1R cells; Table 4; read-out: cAMP EC50
How it was run: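 cAMP accumulation measured after 30 min at 23° C, with 500 μM IBMX in HEPES-buffered HBSS plus 0.1% BSA, in HEK293 cells expressing full-length hGLP-1R. Levels read by D2-cAMP/antibody immunoassay via standard curve, scaled between low and high controls. EC50 fitted four-parameter over a 10-point curve.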

human GLP1R [5] = target: T1, human GLP1R; assay: Luciferase reporter assay, HEK293/CRE-Luc/hGLP1R cells (Example 11); type: cell-based; design: engineered to express full-length human GLP1R, cynomolgus GLP1R; expressed in transfected cells; host or cells: HEK293/CRE-Luc
[6] = Plasma stability of payloads and linker-payloads, human plasma; type: in vitro ADME; conditions: plasma, pH 7.4, tested time A (1 day per footnote), 2 μM, 37° C., read-out: Human plasma stability assay T½ (converted)
How it was run: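 Pooled plasma, pH adjusted to 7.4±0.1 where needed, spiked to 2 μM compound (duplicate) and incubated at 37 °C. At each time point, protein was precipitated with ACN/MeOH stop solution containing internal standards; remaining compound quantified in supernatant by LC-MS/MS.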

[7] = relative to M2361 of the same experiment

CCc1cc(OCCCCNC(=O)CCOCCOCCOCCOCCOCCOCCOCCOCCNC(=O)CCC(=O)N2Cc3ccccc3C#Cc3ccccc32)ccc1-c1ccc(C[C@H](NC(=O)[C@H](CC(=O)O)NC(=O)[C@H](CO)NC(=O)[C@@H](NC(=O)[C@](C)(Cc2ccccc2F)NC(=O)[C@@H](NC(=O)CNC(=O)[C@H](Cc2nn[nH]n2)NC(=O)C(C)(C)C(=O)NCCc2cnc[nH]2)[C@@H](C)O)[C@@H](C)O)C(=O)N[C@@H](CCCc2cc(C)cc(C)c2)C(N)=O)cc1 [LP2, DIBAC-suc-PEG8-P9] ({Malonyl(2,2-Me2,histaminyl)}-[Ala(1H-tetrazol-5-yl)]GT[αMePhe(2-F)]TSD[Bip(2'-Et-4'-O(CH2)4NH2)]([PEG8-Suc-DBCO])[Nva(5-(3,5-Me2Ph))]-NH2)
solubility [1]: ≥ 0.06 µM
S/N (human GLP1R [2]; highest RLU / RLU of untreated wells): 323.1
EC50 (human GLP1R [2]; payloads and linker-payloads, experiments A-E, M2361 repeated in each, read-out: EC50): 0.0742 nM
Relative Potency (% M2361 EC50) (human GLP1R [2]; [7]): 36.8%
Relative Signal:Noise (% M2361) (human GLP1R [2]; [7]): 137.0%

CCc1cc(OCCCCN=[N+]=[N-])ccc1-c1ccc(C[C@H](NC(=O)[C@H](CC(=O)O)NC(=O)[C@H](CO)NC(=O)[C@@H](NC(=O)[C@](C)(Cc2ccccc2F)NC(=O)[C@@H](NC(=O)CNC(=O)[C@H](Cc2nn[nH]n2)NC(=O)C(C)(C)C(=O)NCCc2cnc[nH]2)[C@@H](C)O)[C@@H](C)O)C(=O)N[C@@H](CCCc2cc(C)cc(C)c2)C(N)=O)cc1 [P8] ({Malonyl(2,2-Me2,histaminyl)}-[Ala(1H-tetrazol-5-yl)]GT[αMePhe(2-F)]TSD[Bip(2'-Et,4'-O(CH2)4N3)][Nva(5-(3,5-Me2Ph))]-NH2)
EC50 (HEK293/CRE-Luc cells; Table 11, no hGLP1R expression): > 200 nM
HEK293/CRE-LUC S/N (HEK293/CRE-Luc cells; Table 11, no hGLP1R expression): 1.5
EC50 (HEK293/CRE-Luc cells; Table 12): > 20 nM
HEK293/CRE-Luc S/N (HEK293/CRE-Luc cells; Table 12): 1.3
EC50 (human GLP1R [3]): 0.0076 nM
EC50 (human GLP1R [4]): 0.497 nM
EC50 (human GLP1R [5]; Table 11, Experiment A): 0.00531 nM
HEK293/CRE-LUC/hGLP1R Relative Potency (% P8 EC50) (human GLP1R [5]; Table 11, Experiment A): 100.0%
HEK293/CRE-LUC/hGLP1R S/N (human GLP1R [5]; Table 11, Experiment A): 65.8
EC50 (human GLP1R [5]; Table 11, Experiment B): 0.02 nM
HEK293/CRE-LUC/hGLP1R Relative Potency (% P8 EC50) (human GLP1R [5]; Table 11, Experiment B): 100.0%
HEK293/CRE-LUC/hGLP1R S/N (human GLP1R [5]; Table 11, Experiment B): 327.9
EC50 (human GLP1R [5]; Table 11, Experiment D): 0.0273 nM
HEK293/CRE-LUC/hGLP1R Relative Potency (% P8 EC50) (human GLP1R [5]; Table 11, Experiment D): 100.0%
HEK293/CRE-LUC/hGLP1R Relative Signal:Noise (% P8) (human GLP1R [5]; Table 11, Experiment D): 100.0%
HEK293/CRE-LUC/hGLP1R S/N (human GLP1R [5]; Table 11, Experiment D): 235.9
EC50 (human GLP1R [5]; Table 12, Experiment A): 0.0162 nM
HEK293/CRE-Luc/hGLP1R Relative Potency (% P8 EC50) (human GLP1R [5]; Table 12, Experiment A): 100.0%
HEK293/CRE-Luc/hGLP1R Relative Signal:Noise (% P8) (human GLP1R [5]; Table 12, Experiment A): 100.0%
HEK293/CRE-Luc/hGLP1R S/N (human GLP1R [5]; Table 12, Experiment A): 64.3
EC50 (human GLP1R [5]; Table 12, Experiment D): 0.0273 nM
HEK293/CRE-Luc/hGLP1R Relative Potency (% P8 EC50) (human GLP1R [5]; Table 12, Experiment D): 100.0%
HEK293/CRE-Luc/hGLP1R Relative Signal:Noise (% P8) (human GLP1R [5]; Table 12, Experiment D): 100.0%
HEK293/CRE-Luc/hGLP1R S/N (human GLP1R [5]; Table 12, Experiment D): 235.9
half-life at 2 µM [6]: > 57.8 h
